Assay results taken from US11180452B2, “Methods and compositions for selectively inhibiting pathogenic microbes” (priority 2019, dated 2021).
≈ marks a conversion by molar mass, not a printed value. Like-named read-outs stand apart in the source and are kept apart here.

How the values were obtained:
[1] = test system: cell wall synthesis of S. aureus; assay: Macromolecular synthesis assay, glucosamine incorporation into cell wall; format: cell-based; details: dose-response, FIG. 2A-2B
Bacillus subtilis = Bacillus subtilis MIC / MBC; format: cell-based; details: for MBC: Bacillus subtilis NRRL: B-571, minimum bactericidal concentration; for MIC: Bacillus subtilis, Bacillus subtilis (Ehrenberg 1835) Cohn 1872 NRRL: B-571, read-out: MIC
Candida glabrata = Candida glabrata MIC / MFC; format: cell-based; details: Nakaseomyces glabratus, Candida glabrata #584 (Table 2); for MIC: read-out: MIC
N. gonorrhoeae = N. gonorrhoeae MIC; format: cell-based; details: Neisseria gonorrhoeae
[2] = test system: Francisella tularensis subsp. Holarctica Strain LVSR NR-597; assay: microbe, parasite or virus in culture; format: cell-based
Bacillus thuringiensis = format: cell-based; details: Bacillus thuringiensis Berliner ATCC: 10792; for MIC: Bacillus thuringiensis, read-out: MIC
Trichophyton rubrum = assay: MIC against Trichophyton rubrum; format: cell-based; details: Trichophyton rubrum Castellani Sabouraud ATCC: 28188; read-out: MIC
NoSpin HepaRG cells = assay: HepaRG cytotoxicity, MTT assay EC50; format: cell-based, human; details: Homo sapiens, HepaRG; cytotoxicity EC50, Table 9
Experimental: Additionally, the antimicrobial compounds were analyzed for cytotoxicity. […] We utilized the standard MTT assay (Promega CellTiter 96) and GraphPad Prism 7 software to determine EC50 values for each analogue. Briefly, 20,000 HepG2 cells in 200 μl of the ATCC recommended media were seeded in each well of a 96-well plate with a moisture barrier created in the outermost wells. The cells were allowed to attach overnight at 37° C., and then observed under phase contrast microscopy for proper morphological characteristics. […] Once incubations were complete, the spectrophotometric absorbance of the samples was measured at a wavelength of 595 nm. […] For the HepaRG assay, NoSpin HepaRG™ cells (Lonza, cat #NSHPRG) were thawed and plated with 20,000 cells per well. They were allowed to attach for 4 h (optimal DME profile per Lonza's testing) before dosing following the identical protocol as above.

[3] = test system: Burkholderia thailandensis Brett et al ATCC: 700388; assay: microbe, parasite or virus in culture; format: cell-based
[4] = test system: Francisella tularensis strains; assay: microbe, parasite or virus in culture; format: cell-based

CN[C@H](CC(C)C)C(=O)N[C@H]1C(=O)N[C@@H](CC(N)=O)C(=O)N[C@H]2C(=O)N[C@H]3C(=O)N[C@H](C(=O)N[C@H](C(=O)O)c4cc(O)cc(O)c4-c4cc3ccc4O)[C@H](O)c3ccc(c(Cl)c3)Oc3cc2cc(c3O[C@@H]2O[C@H](CO)[C@@H](O)[C@H](O)[C@H]2O[C@H]2C[C@](C)(N)[C@H](O)[C@H](C)O2)Oc2ccc(cc2Cl)[C@H]1O [vancomycin, reference compound]
cell wall synthesis inhibition (glucosamine incorporation) [1]: increasingly inhibits glucosamine from incorporating into a cell wall

Fc1ccc2[nH]cc(Sc3ccc(Br)cc3)c2c1 [Compound 174E, 3-((4-bromophenyl)thio)-5-fluoro-1H-indole]
MBC (Bacillus subtilis): 3.13 µg/mL (≈ 9.71 µM) | MIC (Bacillus subtilis): 1.56 µg/mL (≈ 4.84 µM) | MIC (Candida glabrata): 3.13 µg/mL (≈ 9.71 µM) | MIC (N. gonorrhoeae; strain #167): < 0.39 µg/mL | MIC (N. gonorrhoeae; strain #203): 1.56 µg/mL (≈ 4.84 µM) | MIC (N. gonorrhoeae; strain #205): 1.56 µg/mL (≈ 4.84 µM) | MIC [2]: 0.78 µg/mL (≈ 2.42 µM) | MBC (Bacillus thuringiensis): 3.13 µg/mL (≈ 9.71 µM) | MIC (Bacillus thuringiensis): 1.56 µg/mL (≈ 4.84 µM) | MIC (Trichophyton rubrum): 2.01 µg/mL (≈ 6.24 µM) | EC50 (NoSpin HepaRG cells): 23.6 µg/mL (≈ 73.2 µM) | MIC [3]: > 50 µg/mL

COc1ccc2[nH]cc(Sc3ccc(Br)cc3)c2c1 [Compound 172E, 3-((4-bromophenyl)thio)-5-methoxy-1H-indole]
MBC (Bacillus subtilis): 6.25 µg/mL (≈ 18.7 µM) | MIC (Bacillus subtilis): 1.56 µg/mL (≈ 4.67 µM) | MFC (Candida glabrata; minimum fungicidal concentration, read-out: MFC): > 50 µg/mL | MIC (Candida glabrata): 6.25 µg/mL (≈ 18.7 µM) | MIC (N. gonorrhoeae; strain #167): < 0.39 µg/mL | MIC (N. gonorrhoeae; strain #203): 3.13 µg/mL (≈ 9.36 µM) | MIC (N. gonorrhoeae; strain #205): 3.13 µg/mL (≈ 9.36 µM) | MIC [2]: 0.78 µg/mL (≈ 2.33 µM) | MBC (Bacillus thuringiensis): 12.5 µg/mL (≈ 37.4 µM) | MIC (Bacillus thuringiensis): 1.56 µg/mL (≈ 4.67 µM) | MIC50 [4]: 8 µg/mL (≈ 23.9 µM) | MIC ([4]; read-out: F. tularensis BSL-3 MIC, Strain 100): > 8 µg/mL | MIC ([4]; read-out: F. tularensis BSL-3 MIC, strain HN-63): 8 µg/mL (≈ 23.9 µM) | MIC ([4]; read-out: F. tularensis BSL-3 MIC, strain LVS): > 8 µg/mL | MIC ([4]; read-out: F. tularensis BSL-3 MIC, strain MA00-2987): 8 µg/mL (≈ 23.9 µM) | MIC ([4]; read-out: F. tularensis BSL-3 MIC, strain MO #1): 5.33 µg/mL (≈ 15.9 µM) | MIC ([4]; read-out: F. tularensis BSL-3 MIC, strain MO #2): 3.33 µg/mL (≈ 9.96 µM) | MIC ([4]; read-out: F. tularensis BSL-3 MIC, strain MO #3): 8 µg/mL (≈ 23.9 µM) | MIC ([4]; read-out: F. tularensis BSL-3 MIC, strain OR-96): 8 µg/mL (≈ 23.9 µM) | MIC ([4]; read-out: F. tularensis BSL-3 MIC, strain SCHU S4): 4 µg/mL (≈ 12 µM) | MIC ([4]; read-out: F. tularensis BSL-3 MIC, strain WY-96): > 8 µg/mL | MIC ([4]; read-out: MAX, highest MIC over the Francisella tularensis strains): > 8 µg/mL | MIC ([4]; read-out: MIN, lowest MIC over the Francisella tularensis strains): 3.33 µg/mL (≈ 9.96 µM) | MIC (Trichophyton rubrum): 2.08 µg/mL (≈ 6.22 µM) | EC50 (NoSpin HepaRG cells): 23.3 µg/mL (≈ 69.7 µM) | MIC [3]: > 50 µg/mL
